From ChEMBL document CHEMBL1133412, “Rational design, synthesis and structure-activity relationships of antitumor (E)-2-benzylidene-1-tetralones and (E)-2-benzylidene-1-indanones” (Bioorg Med Chem Lett, 2000)

Tests used:
Assay type in all cases: functional, cell-based
MCF7 = experiment: Cytotoxicity evaluated against MCF-7 tumor cell lines; Significant activity; settings: Homo sapiens
NCI-H292 = experiment: Cytotoxicity evaluated against H292 tumor cell lines; Significant activity; settings: Homo sapiens
WI-38 = experiment: Cytotoxicity evaluated against WI38 tumor cell lines; Significant activity; settings: Homo sapiens
NIH3T3 = experiment: Cytotoxicity evaluated against NIH3T3 tumor cell lines; Significant activity; settings: Mus musculus
B16 = experiment: Cytotoxicity was evaluated against B16 tumor cell lines; Significant activity; settings: Mus musculus
CCRF-CEM = experiment: Cytotoxicity evaluated against CEM tumor cell lines; Significant activity; settings: Homo sapiens
K562 = experiment: Cytotoxicity evaluated against K562 tumor cell lines; Significant activity; settings: Homo sapiens
NCI-H596 = experiment: Cytotoxicity evaluated against H596 tumor cell lines; Significant activity; settings: Homo sapiens
MOLT-4 = experiment: Cytotoxicity was evaluated against Molt-4 tumor cell lines; settings: Homo sapiens
L1210 = experiment: Cytotoxicity evaluated against L1210 tumor cell lines; Significant activity; settings: Mus musculus
A549 = experiment: Cytotoxicity evaluated against A549 tumor cell lines; significant activity; settings: Homo sapiens
Jurkat = experiment: In vitro test for antitumor activity against human Jurkat cell line using a formazan dye (MTT) conversion assay.
WIL2 = experiment: Cytotoxicity evaluated against WIL2 tumor cell lines; Significant activity; settings: Homo sapiens
HL-60 = experiment: Cytotoxicity evaluated against HL-60 tumor cell lines; Significant activity; settings: Homo sapiens

SMILES	IC50 (Jurkat) [µM]	Cytotoxicity (MCF7)	Cytotoxicity (NCI-H292)	Cytotoxicity (WI-38)	Cytotoxicity (NIH3T3)	Cytotoxicity (B16)	Cytotoxicity (CCRF-CEM)	Cytotoxicity (K562)	Cytotoxicity (NCI-H596)	Cytotoxicity (MOLT-4)	Cytotoxicity (L1210)	Cytotoxicity (A549)	Cytotoxicity (WIL2)	Cytotoxicity (HL-60)
COc1cccc(/C=C2\Cc3cc(OC)c(OC)cc3C2=O)c1	12.8	Significant activity	Significant activity	Significant activity	Significant activity	Significant activity	Significant activity	Significant activity	Significant activity	Significant activity	Significant activity	Significant activity	Significant activity	Significant activity
COc1cc2c(cc1OC)C(=O)/C(=C/c1cc(OC)c(OC)c(OC)c1)CC2	> 50	Significant activity	Significant activity	Significant activity	Significant activity	Significant activity	Significant activity	Significant activity	Significant activity	Significant activity	Significant activity	Significant activity	Significant activity	Significant activity
COc1ccc(OC)c(/C=C2\CCc3cc(OC)c(OC)cc3C2=O)c1	11	Significant activity	Significant activity	Significant activity	Significant activity	Significant activity	Significant activity	Significant activity	Significant activity	Significant activity	Significant activity	Significant activity	Significant activity	Significant activity
COc1cc2c(cc1OC)C(=O)/C(=C/c1cccc(C)c1)CC2	17	Significant activity	Significant activity	Significant activity	Significant activity	Significant activity	Significant activity	Significant activity	Significant activity	Significant activity	Significant activity	Significant activity	Significant activity	Significant activity
COc1cc2c(cc1OC)C(=O)/C(=C/c1cc(Cl)cc(Cl)c1)CC2	7	Significant activity	Significant activity	Significant activity	Significant activity	Significant activity	Significant activity	Significant activity	Significant activity	Significant activity	Significant activity	Significant activity	Significant activity	Significant activity
COc1cc(/C=C2\CCc3cc(OC)c(OC)cc3C2=O)cc(OC)c1	5	Significant activity	Significant activity	Significant activity	Significant activity	Significant activity	Significant activity	Significant activity	Significant activity	Significant activity	Significant activity	Significant activity	Significant activity	Significant activity
COc1cc2c(cc1OC)C(=O)/C(=C/c1cccc(Cl)c1)CC2	9	Significant activity	Significant activity	Significant activity	Significant activity	Significant activity	Significant activity	Significant activity	Significant activity	Significant activity	Significant activity	Significant activity	Significant activity	Significant activity

The next compounds have a lower IC50 (Jurkat) than those just listed; values first:

IC50 (Jurkat) [µM]	SMILES	Cytotoxicity (MCF7)	Cytotoxicity (NCI-H292)	Cytotoxicity (WI-38)	Cytotoxicity (NIH3T3)	Cytotoxicity (B16)	Cytotoxicity (CCRF-CEM)	Cytotoxicity (K562)	Cytotoxicity (NCI-H596)	Cytotoxicity (MOLT-4)	Cytotoxicity (L1210)	Cytotoxicity (A549)	Cytotoxicity (WIL2)	Cytotoxicity (HL-60)
4.8	COc1cc2c(cc1OC)C(=O)/C(=C/c1cc(C)c(O)c(C)c1)CC2	Significant activity	Significant activity	Significant activity	Significant activity	Significant activity	Significant activity	Significant activity	Significant activity	Significant activity	Significant activity	Significant activity	Significant activity	Significant activity
0.125	COc1cc2c(c(OC)c1OC)C(=O)/C(=C/c1cc(C)c(O)c(C)c1)C2	Significant activity	Significant activity	Significant activity	Significant activity	Significant activity	Significant activity	Significant activity	Significant activity	Significant activity	Significant activity	Significant activity	Significant activity	Significant activity
2	COc1cc2c(cc1OC)C(=O)/C(=C/c1cc([N+](=O)[O-])cc([N+](=O)[O-])c1)CC2	Significant activity	Significant activity	Significant activity	Significant activity	Significant activity	Significant activity	Significant activity	Significant activity	Significant activity	Significant activity	Significant activity	Significant activity	Significant activity
0.0235	COc1cc2c(c(N)c1OC)C(=O)/C(=C/c1cc(C)c(N)c(C)c1)C2	Significant activity	Significant activity	Significant activity	Significant activity	Significant activity	Significant activity	Significant activity	Significant activity	Significant activity	Significant activity	Significant activity	Significant activity	Significant activity
0.4	COc1cc2c(cc1OC)C(=O)/C(=C/c1cc(C)c(OC(C)=O)c(C)c1)C2	Significant activity	Significant activity	Significant activity	Significant activity	Significant activity	Significant activity	Significant activity	Significant activity	Significant activity	Significant activity	Significant activity	Significant activity	Significant activity
2.2	CCOC(=O)COc1c(C)cc(/C=C2\Cc3cc(OC)c(OC)cc3C2=O)cc1C	Significant activity	Significant activity	Significant activity	Significant activity	Significant activity	Significant activity	Significant activity	Significant activity	Significant activity	Significant activity	Significant activity	Significant activity	Significant activity
4	COc1cc2c(cc1OC)C(=O)/C(=C/c1cc(C)cc(C)c1)CC2	Significant activity	Significant activity	Significant activity	Significant activity	Significant activity	Significant activity	Significant activity	Significant activity	Significant activity	Significant activity	Significant activity	Significant activity	Significant activity
